{
  "source": "patent US20220267288A1",
  "about": "“CARDIAC THERAPEUTIC” (priority 2019, published 2022)",
  "key": {"H9c2 cells": {"system": "H9c2 cells", "test": "Mitochondrial membrane potential (Δψm) dissipation, TMRM dye", "assay_type": "cell-based", "conditions": "Rattus norvegicus; H9c2 cells, TMRM dye", "procedure": "H9c2 cell line was purchased from American Tissue Type Collection (ATCC) (Manassas, Va.). The cells were cultured in low-glucose DMEM growth media (Cat No: 31600, Thermo Fisher Scientific, Waltham, Mass.) supplemented with 1.5 g/L sodium bicarbonate, 25 mM HEPES, 10% fetal bovine serum (FBS) (GE Healthcare, Singapore), 100 units/mL penicillin, 100 μg/mL streptomycin and 250 ng/mL amphotericin B in 75-cm^2 tissue-culture flasks at 37° C. in a humidified atmosphere of 5% CO2. Cells were fed every 2-3 days and sub-cultured once 70-80% confluency was achieved to prevent the loss of differentiation potential. For differentiation, H9c2 cells were seeded at a density of 100,000 cells/well in 12-well plates. The cells were maintained for 1 day in low-glucose high-serum growth media to allow for cell attachment. Subsequently, cells were differentiated using 1 μM ATRA.\nDissipation of Δψm by each test compound was measured using mitochondrial permeable dye, tetramethylrhodamine methyl ester perchlorate (TMRM) (Thermo Fisher Scientific, Waltham, Mass.). […] The media was aspirated, the cells were washed with PBS and fluorescence was measured at 557 nm excitation and 570 nm emission wavelengths. […] The media was aspirated and then the cells were treated with dronedarone and the dissipation of Δψm by AADs was measured as described."}, "CYP3A4": {"molecular_target": "T1, CYP3A4 (Homo sapiens, UniProt P08684)", "T1 construct": "purchased BD Gentest (Woburn, Mass.)", "T1 sequence (P08684 whole entry)": "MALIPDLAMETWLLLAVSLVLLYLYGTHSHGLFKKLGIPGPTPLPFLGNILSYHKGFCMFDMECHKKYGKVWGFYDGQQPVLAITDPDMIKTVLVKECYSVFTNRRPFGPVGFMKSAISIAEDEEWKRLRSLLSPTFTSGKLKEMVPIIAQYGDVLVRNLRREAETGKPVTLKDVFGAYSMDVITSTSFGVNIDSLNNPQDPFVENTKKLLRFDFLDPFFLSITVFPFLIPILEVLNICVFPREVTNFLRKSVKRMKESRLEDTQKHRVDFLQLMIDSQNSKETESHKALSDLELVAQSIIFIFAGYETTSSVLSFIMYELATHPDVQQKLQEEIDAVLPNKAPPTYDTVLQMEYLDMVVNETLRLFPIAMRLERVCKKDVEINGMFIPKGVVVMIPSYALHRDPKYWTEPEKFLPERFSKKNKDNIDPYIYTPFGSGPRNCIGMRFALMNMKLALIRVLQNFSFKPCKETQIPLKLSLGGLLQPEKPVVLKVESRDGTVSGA", "conditions": "literature value, similar experimental set-up; cited from earlier work"}},
  "data": [
    {"compound": "CCCCc1oc2ccc(NS(C)(=O)=O)cc2c1C(=O)c1ccc(OCCCN(CCCC)CCCC)cc1.Cl", "note": "[Dronedarone]", "values": [
      {"measurement": "IC50", "setting": "H9c2 cells", "value": 500, "unit": "nM"},
      {"measurement": "CLint CYP3A4 reported by Hong et al", "setting": "CYP3A4", "value": 6.442, "unit": "µL/min/pmol"}
    ]}
  ]
}
